Key:
[1] = tested on: HCC827 P and HCC827 TR cells; test: Reno647/Carboplatin combination, median effects (SRB, CalcuSyn); format: cell-based, human
Protocol: As described in Example 2.1. Two cell lines, HCC827-P and HCC827-TR (Tarceva-resistant HCC727 cells-an EGFRi resistant cell line with MET amplification) (Wang, Pursell et al. 2013) were used in the combination study. Exponentially growing HC[…] and HCC827-TR cells were seeded into 96-wells dishes at density of 3,000 cells per well. Twenty-four hours later, the cells were exposed concurrently to serial dilution of Reno647 or Carboplatin or Camptothecin alone or in combination at a ratio of 1:50 with Carboplatin or at ratio 1:1 with Camptothecin for 3 days. Reno647 were concurrently and sequentially with paclitaxel (Taxol) at ratio of 200:1 for 6 days. For sequential exposure, the cells were treated with Reno647 for 3 days, after removal of the drug containing medium, the cells were treated with Taxol for additional 3 days, or the cells were treated by Taxol first followed by the treatment with Reno 647. After incubation for 6 days, the cell growth was measured by SRB as described previously in Example 2.1 section, and the percentages of inhibition (1-T/C) % were calculated, and data were analyzed by a PC program, CalcuSyn, Biosoft (edited by T.-C. Chou, Memorial Sloan-Kettering Cancer Center, New York, and M. P. Hayball, at Cambridge, UK, 1996). The computer-calculated combination index (CI) was used to judge the outcomes of a combination: […] It has long been accepted that chemotherapy provided some benefit for patients with non-small-cell lung cancer (NSCLC) in terms of quality of life and symptomatology as well as modest improvements in survival. […] Cell growth was determined by SRB as described above.

[2] = tested on: 22RV1; test: Cell growth inhibition by SRB method; format: cell-based, human; conditions: for IC50: 72 hrs exposure, SRB; for growth inhibition of 22RV1 cells (in words): EGFR negative cell line, 72 hrs, FIG. 2 and 3
Text: (§1) Six human cancer cell lines have been used to evaluate effects of the compounds on proliferation of cancer cells. These cell lines include HCC827-P (or HCC827 parent cells), human non-small lung cancer cells, Parent NSCLC HCC827 cell line (which harbors EGFR gene amplification, Exon 19 (E19) deletion, and Exon 21 mutation (Wang, Ramakrishnan et al. 2010), and is an EGFRi sensitive cell line (Kim, Kim et al. 2010)); HCC827-TR16 (Tarceva-resistant HCC727 cell line), HCC827-OR16 (AZD9291-resistant HCC727 cell line), LNCaP (human prostate cancer cells—a hormonal-therapy sensitive cell line (Wang, Liu et al. 1997)); 22RV1 (human prostate cancer cells—a hormonal-therapy resistant cell line (Sramkoski, Pretlow et al. 1999)); and ACHN (human renal adenocarcinoma cells (Park, Jung et al. 2003)). LNCaP cells and 22RV1 cells were purchased from the American Type Culture Collection (Rockville, Md.) and others were gifts of friends.
(§2) All cell lines were maintained in RPMI-1640 (GIBCO, Gaithersburg, Md.) with 10% heat-inactivated bovine serum (FBS) (Wang, Ossowski et al. 2004).
(§3) Sulforhodamine B (SRB) was used to estimate cell growth as described previously (Skehan, Storeng et al. 1990). Briefly, cells grown exponentially were aliquoted into 96-well plates at a density of 2,500 to 5,000 cells/200 μl per well in RPMI 1640 medium containing 10% FBS. After twenty-four hours, the cells were exposed to indicated concentrations of tested compounds for 72 hrs or otherwise as indicated. The cells were then fixed with 10% trichloride acetic acid for 2 h at 4° C. The 10% trichloride acetic acid was removed, and the dishes were washed 5 times with tape water, and air-dried. The fixed and dried cells were then stained with 0.4% SRB in 1% acetic acid for 25 min, and the dishes were washed 5 times with 1% acetic acid and air-dried overnight. 200 μl of 10 mM of Tris buffer (pH 10.0) were added, and the dishes were rotated to completely dissolve the color. Absorbance at 570 nm, with a reference wavelength 690 nm, was measured on a 96-well microplate reader (SPECTRO Star^Nano, BMG Labtech). Mean, standard deviation (SD) and the percent of growth inhibition at each concentration point of the treatment were calculated. The percent of growth inhibition as defined as (1−T/C)×100 where T is the mean of the absorbance at 570 nm from the treatment, and C from control (drug vehicle only). IC50 was calculated using Sigma-plot software by regression of growth-concentration curve from each drug treatment.

[3] = tested on: LNCaP; test: Cell growth inhibition by SRB method; format: cell-based, human; conditions: for IC50: Homo sapiens, LNCaP, 72 hrs exposure, SRB
Text: as §1, §2, §3

[4] = tested on: HCC827OR16; test: Cell growth inhibition by SRB method; format: cell-based, human; conditions: AZD9291-resistant line, 72 hrs exposure
Text: as §1
(§4) To evaluate activities of new compounds on growth of EGFR-inhibitor-resistant cells, two EGFRi-resistant cell lines, i.e., HCC827-TR16 and HCC827-OR16 were established using a method described by Eberlein et al. (Eberlein, Stetson et al. 2015). […] Resistant cells were collected and stabilized after 5 weeks (cycle 5). […] The resistant cells were sorted using 96-well dishes by culturing cells with density of 0.1, 1, 10, and 100 cells per well.
as §2, §3

[5] = tested on: HCC827P; test: Cell growth inhibition by SRB method; format: cell-based, human; conditions: for IC50: 72 hrs exposure, SRB
Text: as §1, §4, §2, §3

[6] = tested on: HCC827TR16; test: Cell growth inhibition by SRB method; format: cell-based; conditions: Homo sapiens, Tarceva-resistant line, 72 hrs exposure
Text: as §1, §4, §2, §3

[7] = tested on: ACHN; test: Cell growth inhibition by SRB method; format: cell-based, human; conditions: 72 hrs exposure
Text: as §1, §2, §3

[8] = tested on: tested cancer cell lines; test: Cell growth inhibition by SRB method, tested cancer cell lines overall; format: cell-based, human; conditions: data not provided
Text: as §1, §2, §3

Row | Compound | IC50 ([2]; Homo sapiens, 22Rv1) | IC50 [3] | IC50 ([4]; Homo sapiens) | IC50 ([5]; Homo sapiens) | IC50 [6] | activities against all tested cancer cells lines compared with NK-2206 and MLN8237 [8] | further results
1 | N.N.O=C([O-])C1(C(=O)[O-])CCC1.[Pt+2] [Carboplatin, reference compound] |  |  |  |  |  |  | dose reduction in combination ([1]; Reno647:Carboplatin 1:50): 2 fold; median effects, two drugs combined ([1]; Reno647:Carboplatin 1:50, concurrent, cell line not stated): 3.38 µM; median effects, drug alone ([1]; single agent, cell line not stated): 8.39 µM
2 | C=CC(=O)Nc1cc(Nc2nccc(-c3cn(C)c4ccccc34)n2)c(OC)cc1N(C)CCN(C)C [AZD9291, reference compound] | 650 nM | 2000 nM | 2000 nM | < 200 nM | 1200 nM |  | 
3 | C#Cc1cccc(Nc2ncnc3cc(OCCOC)c(OCCOC)cc23)c1 [Tarceva, reference compound] | > 5000 nM | > 5000 nM | > 5000 nM | < 200 nM | > 5000 nM |  | growth inhibition of 22RV1 cells (in words) [2]: relatively weak response; IC50 ([7]; Homo sapiens, ACHN): 625 nM; growth inhibition of LNCaP cells (in words) ([3]; 72 hrs, FIG. 2): relatively weak response; IC50 HCC827OR16 [4]: almost unmeasurable
4 | (3-Ethynyl-phenyl)-[6-(2-methoxy-ethoxy)-7-nitro-naphthalen-1-yl]-amine [Reno635] |  |  |  |  |  |  | IC50 [2]: 5000 nM; IC50 [7]: 3750 nM; IC50 [4]: > 5000 nM; IC50 [5]: > 5000 nM
5 | C#Cc1cccc(Nc2ncnc3cc(OCCOC)c(NC(=O)c4ccc(Br)c([N+](=O)[O-])c4)cc23)c1 [Reno636, 4-Bromo-N-[4-(3-ethynyl-phenylamino)-7-(2-methoxy-ethoxy)-quinazolin-6-yl]-3-nitro-benzamide] | > 5000 nM |  | > 5000 nM | 200 nM | > 5000 nM | better activities | IC50 ([7]; Homo sapiens, ACHN): > 5000 nM
6 | C#Cc1cccc(Nc2ncnc3cc(OCCOC)c(NC(=O)c4ccc(Cl)c([N+](=O)[O-])c4)cc23)c1 [Reno648, 4-Chloro-N-[4-(3-ethynyl-phenylamino)-7-(2-methoxy-ethoxy)-quinazolin-6-yl]-3-nitro-benzamide] | > 5000 nM | > 5000 nM | > 5000 nM | 150 nM | > 5000 nM | better activities | 
7 | O=C(c1cc(Cc2n[nH]c(=O)c3ccccc23)ccc1F)N1CCN(C(=O)C2CC2)CC1 [AZD2281, reference compound] |  |  |  |  |  |  | growth inhibition of 22RV1 cells (in words) [2]: significantly inhibited; growth inhibition of HCC827P cells (in words) ([5]; EGFR positive cell line, 72 hrs, FIG. 3): no activity
8 | C#Cc1cccc(Nc2ncnc3cc(OCCOC)c(NC(=O)c4ccc(I)c([N+](=O)[O-])c4)cc23)c1 [Reno649, 4-Iodo-N-[4-(3-ethynyl-phenylamino)-7-(2-methoxy-ethoxy)-quinazolin-6-yl]-3-nitro-benzamide] | 2300 nM | > 5000 nM | 1800 nM | 200 nM | > 5000 nM | better activities | 
